Tests used:
[1] = refractive index (Na D-line) (dimensionless); wn = mass fraction of the nth substance listed; details: 100 kPa, Liquid, Standard Abbe refractometry
[2] = wn = mass fraction of the nth substance listed; details: for surface tension liquid-gas: Maximal bubble pressure; for mass density: 100 kPa, Liquid, Vibrating tube method

CCCCC[n+]1ccccc1.N#C[N-]C#N [1-pentylpyridinium dicyanamide] + O
Details | mass density [kg/m3] | refractive index | surface tension liquid-gas [mN/m]
[1], 303.15 K, w2 = 0.00159 | – | 1.5285 | –
[1], 303.15 K, w2 = 0.00322 | – | 1.5282 | –
[1], 303.15 K, w2 = 0.00513 | – | 1.5279 | –
[1], 303.15 K, w2 = 0.00661 | – | 1.5277 | –
[1], 303.15 K, w2 = 0.00821 | – | 1.5274 | –
[1], 308.15 K, w2 = 0.00159 | – | 1.527 | –
[1], 308.15 K, w2 = 0.00322 | – | 1.5268 | –
[1], 308.15 K, w2 = 0.00513 | – | 1.5265 | –
[1], 308.15 K, w2 = 0.00661 | – | 1.5263 | –
[1], 308.15 K, w2 = 0.00821 | – | 1.5261 | –
[1], 313.15 K, w2 = 0.00159 | – | 1.5255 | –
[1], 313.15 K, w2 = 0.00322 | – | 1.5253 | –
[1], 313.15 K, w2 = 0.00513 | – | 1.525 | –
[1], 313.15 K, w2 = 0.00661 | – | 1.5248 | –
[1], 313.15 K, w2 = 0.00821 | – | 1.5245 | –
[1], 318.15 K, w2 = 0.00159 | – | 1.5241 | –
[1], 318.15 K, w2 = 0.00322 | – | 1.5239 | –
[1], 318.15 K, w2 = 0.00513 | – | 1.5236 | –
[1], 318.15 K, w2 = 0.00661 | – | 1.5234 | –
[1], 318.15 K, w2 = 0.00821 | – | 1.5232 | –
[1], 323.15 K, w2 = 0.00159 | – | 1.5228 | –
[1], 323.15 K, w2 = 0.00322 | – | 1.5225 | –
[1], 323.15 K, w2 = 0.00513 | – | 1.5222 | –
[1], 323.15 K, w2 = 0.00661 | – | 1.522 | –
[1], 323.15 K, w2 = 0.00821 | – | 1.5217 | –
[1], 328.15 K, w2 = 0.00159 | – | 1.521 | –
[1], 328.15 K, w2 = 0.00322 | – | 1.5208 | –
[1], 328.15 K, w2 = 0.00513 | – | 1.5205 | –
[1], 328.15 K, w2 = 0.00661 | – | 1.5203 | –
[1], 328.15 K, w2 = 0.00821 | – | 1.5201 | –
[1], 333.15 K, w2 = 0.00159 | – | 1.5192 | –
[1], 333.15 K, w2 = 0.00322 | – | 1.519 | –
[1], 333.15 K, w2 = 0.00513 | – | 1.5188 | –
[1], 333.15 K, w2 = 0.00661 | – | 1.5186 | –
[1], 333.15 K, w2 = 0.00821 | – | 1.5184 | –
[1], 338.15 K, w2 = 0.00159 | – | 1.5177 | –
[1], 338.15 K, w2 = 0.00322 | – | 1.5175 | –
[1], 338.15 K, w2 = 0.00513 | – | 1.5172 | –
[1], 338.15 K, w2 = 0.00661 | – | 1.517 | –
[1], 338.15 K, w2 = 0.00821 | – | 1.5168 | –
[2], 303.15 K, w2 = 0.00124 | 1049.94 | – | –
[2], 303.15 K, w2 = 0.00159 | – | – | 53.3
[2], 303.15 K, w2 = 0.00269 | 1049.85 | – | –
[2], 303.15 K, w2 = 0.00309 | – | – | 53.7
[2], 303.15 K, w2 = 0.00423 | 1049.72 | – | –
[2], 303.15 K, w2 = 0.00463 | – | – | 54
[2], 303.15 K, w2 = 0.00567 | 1049.59 | – | –
[2], 303.15 K, w2 = 0.00611 | – | – | 54.3
[2], 303.15 K, w2 = 0.00714 | 1049.48 | – | –
[2], 303.15 K, w2 = 0.00762 | – | – | 54.6
[2], 308.15 K, w2 = 0.00124 | 1046.92 | – | –
[2], 308.15 K, w2 = 0.00159 | – | – | 53.1
[2], 308.15 K, w2 = 0.00269 | 1046.83 | – | –
[2], 308.15 K, w2 = 0.00309 | – | – | 53.3
[2], 308.15 K, w2 = 0.00423 | 1046.7 | – | –
[2], 308.15 K, w2 = 0.00463 | – | – | 53.7
[2], 308.15 K, w2 = 0.00567 | 1046.57 | – | –
[2], 308.15 K, w2 = 0.00611 | – | – | 54
[2], 308.15 K, w2 = 0.00714 | 1046.45 | – | –
[2], 308.15 K, w2 = 0.00762 | – | – | 54.3
[2], 313.15 K, w2 = 0.00124 | 1043.92 | – | –
[2], 313.15 K, w2 = 0.00159 | – | – | 52.8
[2], 313.15 K, w2 = 0.00269 | 1043.82 | – | –
[2], 313.15 K, w2 = 0.00309 | – | – | 53
[2], 313.15 K, w2 = 0.00423 | 1043.69 | – | –
[2], 313.15 K, w2 = 0.00463 | – | – | 53.4
[2], 313.15 K, w2 = 0.00567 | 1043.56 | – | –
[2], 313.15 K, w2 = 0.00611 | – | – | 53.7
[2], 313.15 K, w2 = 0.00714 | 1043.44 | – | –
[2], 313.15 K, w2 = 0.00762 | – | – | 54
[2], 318.15 K, w2 = 0.00124 | 1040.93 | – | –
[2], 318.15 K, w2 = 0.00159 | – | – | 52.4
[2], 318.15 K, w2 = 0.00269 | 1040.82 | – | –
[2], 318.15 K, w2 = 0.00309 | – | – | 52.7
[2], 318.15 K, w2 = 0.00423 | 1040.7 | – | –
[2], 318.15 K, w2 = 0.00463 | – | – | 53
[2], 318.15 K, w2 = 0.00567 | 1040.56 | – | –
[2], 318.15 K, w2 = 0.00611 | – | – | 53.3
[2], 318.15 K, w2 = 0.00714 | 1040.44 | – | –
[2], 318.15 K, w2 = 0.00762 | – | – | 53.6
[2], 323.15 K, w2 = 0.00124 | 1037.95 | – | –
[2], 323.15 K, w2 = 0.00159 | – | – | 52.1
[2], 323.15 K, w2 = 0.00269 | 1037.84 | – | –
[2], 323.15 K, w2 = 0.00309 | – | – | 52.3
[2], 323.15 K, w2 = 0.00423 | 1037.72 | – | –
[2], 323.15 K, w2 = 0.00463 | – | – | 52.7
[2], 323.15 K, w2 = 0.00567 | 1037.57 | – | –
[2], 323.15 K, w2 = 0.00611 | – | – | 53
[2], 323.15 K, w2 = 0.00714 | 1037.45 | – | –
[2], 323.15 K, w2 = 0.00762 | – | – | 53.3
[2], 328.15 K, w2 = 0.00124 | 1034.99 | – | –
[2], 328.15 K, w2 = 0.00159 | – | – | 51.8
[2], 328.15 K, w2 = 0.00269 | 1034.88 | – | –
[2], 328.15 K, w2 = 0.00309 | – | – | 52
[2], 328.15 K, w2 = 0.00423 | 1034.75 | – | –
[2], 328.15 K, w2 = 0.00463 | – | – | 52.4
[2], 328.15 K, w2 = 0.00567 | 1034.61 | – | –
[2], 328.15 K, w2 = 0.00611 | – | – | 52.7
[2], 328.15 K, w2 = 0.00714 | 1034.48 | – | –
[2], 328.15 K, w2 = 0.00762 | – | – | 53
[2], 333.15 K, w2 = 0.00124 | 1032.05 | – | –
[2], 333.15 K, w2 = 0.00159 | – | – | 51.5
[2], 333.15 K, w2 = 0.00269 | 1031.93 | – | –
[2], 333.15 K, w2 = 0.00309 | – | – | 51.8
[2], 333.15 K, w2 = 0.00423 | 1031.8 | – | –
[2], 333.15 K, w2 = 0.00463 | – | – | 52.1
[2], 333.15 K, w2 = 0.00567 | 1031.65 | – | –
[2], 333.15 K, w2 = 0.00611 | – | – | 52.4
[2], 333.15 K, w2 = 0.00714 | 1031.52 | – | –
[2], 333.15 K, w2 = 0.00762 | – | – | 52.7
[2], 338.15 K, w2 = 0.00124 | 1029.11 | – | –
[2], 338.15 K, w2 = 0.00159 | – | – | 51.3
[2], 338.15 K, w2 = 0.00269 | 1029 | – | –
[2], 338.15 K, w2 = 0.00309 | – | – | 51.6
[2], 338.15 K, w2 = 0.00423 | 1028.86 | – | –
[2], 338.15 K, w2 = 0.00463 | – | – | 51.9
[2], 338.15 K, w2 = 0.00567 | 1028.71 | – | –
[2], 338.15 K, w2 = 0.00611 | – | – | 52.2
[2], 338.15 K, w2 = 0.00714 | 1028.58 | – | –
[2], 338.15 K, w2 = 0.00762 | – | – | 52.4
